Laboratory results: PubChem BioAssay (NCI)
Several values for one entry are separate records, joined by “and”; a condition that tells them apart may be missing. Equal values may be shown once.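 Assay format: 96-well plates, 48-hour exposure. The concentration for 50% growth inhibition is given as GI50. The concentration for full growth arrest is given as TGI.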

How the values were obtained:
Assay in all cases: NCI anticancer screen, dose series, 48 h
[1] = system: ACHN renal
[2] = system: TK-10 renal
[3] = system: COLO 205 colon
[4] = system: OVCAR-4 ovarian
[5] = system: NCI-H460 lung
[6] = system: OVCAR-8 ovarian
[7] = system: MOLT-4 leukemia
[8] = system: SF-295 CNS
[9] = system: RPMI-8226 leukemia
[10] = system: MCF7 breast

| SMILES | TGI [1] | TGI [2] | TGI [3] | TGI [4] | TGI [5] | TGI [6] | TGI [7] | TGI [8] | TGI [9] | GI50 [1] | GI50 [2] | GI50 [4] | GI50 [5] | GI50 [6] | GI50 [7] | GI50 [10] | TGI [10] | GI50 [8] | GI50 [9] | GI50 [3] |
| --- | --- | --- | --- | --- | --- | --- | --- | --- | --- | --- | --- | --- | --- | --- | --- | --- | --- | --- | --- | --- |
| COc1ccc(C(=O)Nc2ccc(S(=O)(=O)NCC(=O)O)cc2)cc1 | > 100 µM | > 100 µM | > 100 µM | > 100 µM | > 100 µM | > 100 µM | > 100 µM | > 100 µM | > 100 µM | – | – | – | – | – | – | – | – | – | – | – |
| O=C(Nc1ccc(Cl)cc1F)c1cc(F)ccc1O | 8.27 µM | 23.1 µM | – | > 29.6 µM | 13.5 µM | > 70.8 µM | 4.77 µM | 3.57 µM | 3.99 µM | 0.83 µM | 4.69 µM | 0.941 µM | 0.647 µM | 2.4 µM | 1.9 µM | 1.77 µM | 9.28 µM | 1.8 µM | 0.449 µM | – |
| O=C(O)c1c([N+](=O)[O-])cc(C(F)(F)F)cc1[N+](=O)[O-] | > 100 µM | > 100 µM | > 100 µM | > 100 µM | > 100 µM | > 100 µM | > 100 µM | > 100 µM | > 100 µM | – | – | – | – | – | – | – | – | – | – | – |
| O=C(N[C@@H]1C=CCC[C@@H]1c1ccccc1)OCc1ccccc1 | 64.7 µM | 24.6 µM | 33.1 µM | 42.4 µM | 34.7 µM | 42.6 µM | 34.6 µM | 45.6 µM | 57.2 µM | – | – | – | – | – | – | – | – | – | – | – |
| CSc1c(S(C)=O)[nH]c2cc(Br)cc(Br)c12 (stereo not drawn) | 88.2 µM | 78.1 µM | 33.1 µM | – | 35.1 µM | 61.8 µM | 61.5 µM | 45.2 µM | 57.7 µM | – | – | – | – | – | – | – | – | – | – | – |
| O=c1c2cc(Br)ccc2nc(-c2ccccc2)n1NCC1(O)OCC(O)C(O)C1O (stereo not drawn) | > 100 µM | – | > 100 µM | > 100 µM | > 100 µM | > 100 µM | > 100 µM | > 100 µM | > 100 µM | – | – | – | – | – | – | – | – | – | – | – |
| COc1ccc2[nH]c3c(C)c4cc[n+](C)cc4c(C)c3c2c1 | > 85.3 µM | 89.2 µM and > 163 µM | 7.97 µM and 4.89 µM and 3.58 µM | 15.9 µM [middle of 4 runs] | – | – | – | – | – | 4.04 µM | 12.4 µM and 24.3 µM and 5.65 µM | 2.18 µM | 0.402 µM and 0.998 µM | 0.0892 µM and 0.134 µM | 653 nM [middle of 4 runs] | 1.51 µM and 0.885 µM | – | 0.107 µM | – | – |
| CN(C)CCNC(=O)c1cccc2ccc(-c3cccnc3)nc12 | 23.2 µM | 7.05 µM | 13.6 µM | 36.9 µM | > 100 µM | > 100 µM | > 100 µM | 24.1 µM | – | – | – | – | – | – | – | – | – | – | – | – |
| COc1ccc(C2=CC(c3ccc(Oc4ccnc5cc(Cl)ccc45)c(OC)c3)c3c(nc(OC)[nH]c3=O)N2)cc1 (stereo not drawn) | > 100 µM | – | > 100 µM | > 100 µM | > 100 µM | > 100 µM | – | > 100 µM | 7.27 µM | 5.24 µM | – | 6.69 µM | 6.51 µM | 4.85 µM | – | 3.56 µM | > 100 µM | 6.42 µM | 2.73 µM | 79.9 µM |
| O=C(c1ccccn1)c1nc(-c2ccc(Cl)c(Cl)c2)nc2ccc(Cl)cc12 | > 100 µM | > 100 µM | – | > 100 µM | > 100 µM | > 100 µM | > 100 µM | > 100 µM | > 100 µM | – | – | – | – | – | – | – | – | – | – | – |
| CCCCNC(=O)OCC(COc1ccccc1OC)OC(=O)NCCCC (stereo not drawn) | > 100 µM | > 100 µM | > 100 µM | > 100 µM | > 100 µM | > 100 µM | > 100 µM | > 100 µM | > 100 µM | – | – | – | – | – | – | – | – | – | – | – |
| COc1ccc(OC)c(/C=C/C(=O)C(C)(C)C)c1 | 39.7 µM | 72.7 µM | 33.3 µM | 49 µM | > 100 µM | 38 µM | 55.1 µM | 67.4 µM | 40.7 µM | – | – | – | – | – | – | – | – | – | – | – |
| CC(C)[C@H]1CO[C@@H]2O[C@H](C)CC(=O)N21 | > 100 µM | > 100 µM | > 100 µM | > 100 µM | > 100 µM | > 100 µM | > 100 µM | > 100 µM | > 100 µM | – | – | – | – | – | – | – | – | – | – | – |
| O=C1NC2(CCCC2)/C(=N\O)C12CCCC2 | > 100 µM | > 100 µM | > 100 µM | > 100 µM | > 100 µM | > 100 µM | > 100 µM | > 100 µM | – | – | – | – | – | – | – | – | – | – | – | – |
| COc1cc(-c2nc(-c3nnc(-c4ccc(F)c(Cl)c4)o3)c3ccccn23)cc(OC)c1OC | – | 5.9 µM | > 100 µM | – | – | 4.44 µM | > 100 µM | > 100 µM | 5.65 µM | – | 2.4 µM | – | – | 1.69 µM | > 100 µM | – | – | 3.09 µM | 1.79 µM | 4.68 µM |
| C=CC1(c2ccccc2Cl)N/C(=C/OCC)CO1 (stereo not drawn) | > 100 µM | > 100 µM | > 100 µM | > 100 µM | > 100 µM | > 100 µM | > 100 µM | > 100 µM | 65 µM | – | – | – | – | – | – | – | – | – | – | – |
| CCOC(=O)C1(Br)C(c2ccccc2)NC(=O)N(C2OC(COC(=O)c3ccccc3)C(OC(=O)c3ccccc3)C2OC(=O)c2ccccc2)C1(C)Br (stereo not drawn) | > 100 µM | > 100 µM | > 65.7 µM | 43.4 µM | > 100 µM | > 100 µM | 59 µM | > 100 µM | 33.2 µM | – | – | – | – | – | – | – | – | – | – | – |
| CN(C)c1ccc(/C=C/c2ccnc3ccc4ccccc4c23)cc1 | 57.3 µM | 49.9 µM | > 100 µM | – | > 100 µM | > 100 µM | > 100 µM | – | > 100 µM | – | – | – | – | – | – | – | > 100 µM | – | – | – |
| O=c1c2[nH]c3ccccc3c2nc2n1CCS2 | > 100 µM | > 100 µM | > 100 µM | > 100 µM | > 100 µM | > 100 µM | – | > 100 µM | > 100 µM | 65.2 µM | > 100 µM | > 100 µM | > 100 µM | > 100 µM | – | > 100 µM | > 100 µM | > 100 µM | > 100 µM | > 100 µM |
| NC(=S)N/N=C1\C(=O)N(CCc2ccccc2)C(=O)C1C(=O)NCCc1ccccc1 (stereo not drawn) | > 100 µM | > 100 µM | > 100 µM | > 100 µM | > 100 µM | > 100 µM | – | > 100 µM | > 100 µM | – | – | – | – | – | – | – | – | – | – | – |
| NCCn1ccc(NC(c2ccccc2)(c2ccccc2)c2ccccc2)nc1=O | > 100 µM | 85 µM | 78.6 µM | > 100 µM | 37.9 µM | > 100 µM | 44.8 µM | 36.1 µM | 46.3 µM | – | – | – | – | – | – | – | – | – | – | – |
